Assay type in all cases: cell-based
Settings in all cases: compounds at 50 nM and 500 nM

The target in one experiment is T1, GSPT1 (Homo sapiens, UniProt P15170+Q96SW2).
T1 construct: The supernatant was aspirated as the extracted total cell protein; endogenous in cells; host or cells: human peripheral blood mononuclear cells (hPBMCs)
The experiment in a line: Western blot degradation of GSPT1 in hPBMCs (24 h). How it is done: (§1) Conventional Western blot assay was performed to evaluate the effects of the compounds of the present disclosure on the expression of target proteins in cells. • (1) Cell Seeding and Protein Harvesting: Human peripheral blood mononuclear cells (hPBMCs) at a density of 1×10^6 cells/mL were thawed according to the PBMC Recovery Protocol (Milecell Biotechnologies Inc, Shanghai). The cells were then treated with the compounds of the present disclosure (including the compounds listed in Table 1, and the Examples 1-498 compounds) at concentrations of 50 nM and 500 nM. Controls included a negative control (DMSO) and a positive control (the commercial immunomodulatory drug lenalidomide), both processed following the identical experimental protocol as the compounds of the present disclosure. After 24 hours of compounds treatment, cells were harvested and lysed in RIPA protein lysate containing protease inhibitors on ice for 30 min, followed by centrifugation. The supernatant was aspirated as the extracted total cell protein. The protein concentration of the supernatant was determined using the conventional BCA (Bicinchoninic Acid) assay. • (2) To the collected supernatant, 5×SDS sample loading buffer was added, followed by denaturation at 95 °C for 5 minutes. The denatured samples were then separated by SDS-PAGE electrophoresis on a polyacrylamide gel. Proteins were transferred to a nitrocellulose membrane (0.45 μm NC membrane), blocked with blocking buffer at room temperature for 1 hour, and subjected to antibody incubation and development procedures according to the antibody manufacturer's instructions (Cell Signaling Technology).
(§2) Half-Maximal Degradation Concentration value (the drug concentration required for degrading proteins by 50%, abbreviated as DC50) reads method: comparing the grayscale values of Western blot bands from drug-treated samples with those from blank DMSO-treated controls, and identifying the drug concentration range at which the grayscale value is half that of the DMSO-treated control bands.
(§3) DC50 values can be calculated using ImageJ software to measure grayscale values of Western blot bands from drug-treated samples. The concentration-response curve is fitted to estimate the drug concentration corresponding to half the grayscale value.
(§4) Target protein remaining (%) refers to the percentage of target protein remaining in cells after treatment with protein degrader compounds.
(§5) Calculation method for target protein remaining (%): Use ImageJ software to measure grayscale values of Western blot bands from drug (protein degrader)-treated samples. The grayscale value of drug-treated bands is divided by that of internal control protein bands, and the resulting quotient is normalized to obtain the relative percentage of remaining target protein after protein degrader treatment.
(§6) Target protein degradation rate (%)=1−target protein remaining (%).
For orientation: A western blot detects proteins with antibodies after separation by electrophoresis.

A further experiment deals with T2, WEE1 (Homo sapiens, UniProt P30291+Q96SW2).
T2 construct: The supernatant was aspirated as the extracted total cell protein; endogenous in cells; host or cells: human peripheral blood mononuclear cells (hPBMCs)
Briefly: Western blot degradation of WEE1 in hPBMCs (24 h). Here is the method: as §1, §2, §3, §4, §5, §6

In a further experiment the target is T3, IKZF2 (Homo sapiens, UniProt Q96SW2+Q9UKS7).
T3 construct: The supernatant was aspirated as the extracted total cell protein; endogenous in cells; host or cells: human peripheral blood mononuclear cells (hPBMCs)
The experiment in a line: Western blot degradation of IKZF2 in hPBMCs (24 h). Here is the method: as §1, §2, §3, §4, §5, §6

The target in the next experiment is T4, IKZF1 (Homo sapiens, UniProt Q13422+Q96SW2).
T4 construct: The supernatant was aspirated as the extracted total cell protein; endogenous in cells; host or cells: human peripheral blood mononuclear cells (hPBMCs)
The experiment in a line: Western blot degradation of IKZF1 in hPBMCs (24 h). Here is the method:
as §1, §2, §3, §4, §5, §6

Another experiment addresses T5, CK1α (Homo sapiens, UniProt P48729+Q96SW2).
T5 construct: The supernatant was aspirated as the extracted total cell protein; endogenous in cells; host or cells: human peripheral blood mononuclear cells (hPBMCs)
Briefly: Western blot degradation of CK1α in hPBMCs (24 h). How it is done:
as §1, §2, §3, §4, §5, §6

The target of a further experiment is T6, IKZF3 (Homo sapiens, UniProt Q96SW2+Q9UKT9).
T6 construct: The supernatant was aspirated as the extracted total cell protein; endogenous in cells; host or cells: human peripheral blood mononuclear cells (hPBMCs)
Briefly: Western blot degradation of IKZF3 in hPBMCs (24 h). Here is the method: as §1, §2, §3, §4, §5, §6

T3 sequence (Q9UKS7 whole entry): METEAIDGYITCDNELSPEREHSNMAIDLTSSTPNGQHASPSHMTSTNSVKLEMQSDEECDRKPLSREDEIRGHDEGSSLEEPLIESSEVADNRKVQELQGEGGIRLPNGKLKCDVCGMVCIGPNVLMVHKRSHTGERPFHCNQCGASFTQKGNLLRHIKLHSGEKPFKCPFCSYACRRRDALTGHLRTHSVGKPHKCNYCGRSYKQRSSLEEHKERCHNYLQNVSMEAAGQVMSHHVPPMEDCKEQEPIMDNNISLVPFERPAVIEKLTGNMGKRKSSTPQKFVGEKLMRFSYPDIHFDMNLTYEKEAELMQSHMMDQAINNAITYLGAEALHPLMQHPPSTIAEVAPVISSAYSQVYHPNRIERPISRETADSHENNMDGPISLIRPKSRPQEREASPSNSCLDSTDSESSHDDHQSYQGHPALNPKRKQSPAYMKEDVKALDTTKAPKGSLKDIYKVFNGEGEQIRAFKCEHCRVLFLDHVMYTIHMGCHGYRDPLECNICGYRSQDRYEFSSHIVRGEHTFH
T3 sequence (Q96SW2 whole entry): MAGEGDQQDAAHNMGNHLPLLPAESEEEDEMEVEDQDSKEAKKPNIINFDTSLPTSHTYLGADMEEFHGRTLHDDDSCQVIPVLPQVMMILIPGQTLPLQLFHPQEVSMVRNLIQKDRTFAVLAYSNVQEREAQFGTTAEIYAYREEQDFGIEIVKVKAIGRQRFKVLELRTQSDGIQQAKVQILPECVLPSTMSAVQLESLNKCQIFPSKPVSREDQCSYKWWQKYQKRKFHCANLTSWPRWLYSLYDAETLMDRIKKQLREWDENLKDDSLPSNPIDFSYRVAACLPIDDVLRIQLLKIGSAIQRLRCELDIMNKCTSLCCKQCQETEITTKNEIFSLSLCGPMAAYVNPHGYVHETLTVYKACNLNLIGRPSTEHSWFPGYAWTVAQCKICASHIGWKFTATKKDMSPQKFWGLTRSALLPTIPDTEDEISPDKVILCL
T3 sequence (Q16531 whole entry partner): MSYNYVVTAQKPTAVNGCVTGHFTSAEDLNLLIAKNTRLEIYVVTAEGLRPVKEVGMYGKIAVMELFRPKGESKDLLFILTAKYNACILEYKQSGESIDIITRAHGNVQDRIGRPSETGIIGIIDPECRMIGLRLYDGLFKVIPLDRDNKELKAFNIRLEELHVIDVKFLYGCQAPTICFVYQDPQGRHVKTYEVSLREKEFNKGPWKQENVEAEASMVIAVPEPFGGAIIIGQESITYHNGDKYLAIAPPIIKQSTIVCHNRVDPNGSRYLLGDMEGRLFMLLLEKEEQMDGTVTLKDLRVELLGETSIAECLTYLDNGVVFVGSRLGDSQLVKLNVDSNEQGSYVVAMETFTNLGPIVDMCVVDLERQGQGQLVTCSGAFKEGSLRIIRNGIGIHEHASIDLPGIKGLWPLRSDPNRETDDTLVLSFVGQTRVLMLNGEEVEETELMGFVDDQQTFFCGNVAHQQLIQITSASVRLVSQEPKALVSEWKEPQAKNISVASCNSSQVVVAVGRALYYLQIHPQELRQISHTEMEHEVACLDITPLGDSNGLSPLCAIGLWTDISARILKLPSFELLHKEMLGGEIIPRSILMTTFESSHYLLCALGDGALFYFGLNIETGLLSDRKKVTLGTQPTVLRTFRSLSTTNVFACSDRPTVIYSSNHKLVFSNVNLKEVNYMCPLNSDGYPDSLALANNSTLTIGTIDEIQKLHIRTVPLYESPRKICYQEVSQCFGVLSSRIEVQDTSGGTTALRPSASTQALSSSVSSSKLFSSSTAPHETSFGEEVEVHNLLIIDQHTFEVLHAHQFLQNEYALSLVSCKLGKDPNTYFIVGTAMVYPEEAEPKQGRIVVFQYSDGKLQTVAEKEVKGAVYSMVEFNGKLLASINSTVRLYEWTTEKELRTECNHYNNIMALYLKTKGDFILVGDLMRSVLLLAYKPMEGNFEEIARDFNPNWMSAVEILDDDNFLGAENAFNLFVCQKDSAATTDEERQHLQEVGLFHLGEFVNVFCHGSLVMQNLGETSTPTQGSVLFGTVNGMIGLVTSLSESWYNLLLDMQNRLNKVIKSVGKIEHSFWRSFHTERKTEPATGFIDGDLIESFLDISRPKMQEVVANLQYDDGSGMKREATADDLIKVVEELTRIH
T4 sequence (Q13422 whole entry): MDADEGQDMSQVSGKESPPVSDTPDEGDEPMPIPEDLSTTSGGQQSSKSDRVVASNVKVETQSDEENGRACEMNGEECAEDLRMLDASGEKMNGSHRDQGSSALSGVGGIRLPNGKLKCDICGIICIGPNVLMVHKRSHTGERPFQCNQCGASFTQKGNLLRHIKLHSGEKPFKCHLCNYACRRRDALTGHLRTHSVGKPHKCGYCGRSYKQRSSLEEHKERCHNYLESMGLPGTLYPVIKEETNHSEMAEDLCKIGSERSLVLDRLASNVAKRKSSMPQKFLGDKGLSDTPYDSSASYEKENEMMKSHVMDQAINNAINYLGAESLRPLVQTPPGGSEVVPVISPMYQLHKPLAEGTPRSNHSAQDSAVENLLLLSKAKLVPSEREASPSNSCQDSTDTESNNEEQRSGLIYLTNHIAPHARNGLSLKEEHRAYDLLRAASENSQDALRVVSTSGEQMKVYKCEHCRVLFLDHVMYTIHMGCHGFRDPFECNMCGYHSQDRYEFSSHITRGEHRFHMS
T4 sequence (Q96SW2 whole entry): as the sequence (Q96SW2 whole entry) above
T4 sequence (Q16531 whole entry partner): as the sequence (Q16531 whole entry partner) above
T5 sequence (P48729 whole entry): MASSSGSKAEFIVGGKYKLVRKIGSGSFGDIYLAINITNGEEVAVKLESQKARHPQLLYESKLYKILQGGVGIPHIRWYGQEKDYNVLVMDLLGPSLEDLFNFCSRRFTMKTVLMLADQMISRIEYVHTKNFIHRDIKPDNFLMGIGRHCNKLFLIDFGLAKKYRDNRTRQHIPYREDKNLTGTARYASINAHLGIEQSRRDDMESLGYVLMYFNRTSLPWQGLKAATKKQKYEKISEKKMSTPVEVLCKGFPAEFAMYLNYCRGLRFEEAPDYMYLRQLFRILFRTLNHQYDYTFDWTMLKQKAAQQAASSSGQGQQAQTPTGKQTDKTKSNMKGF
T5 sequence (Q96SW2 whole entry): as the sequence (Q96SW2 whole entry) above
T5 sequence (Q16531 whole entry partner): as the sequence (Q16531 whole entry partner) above
T6 sequence (Q9UKT9 whole entry): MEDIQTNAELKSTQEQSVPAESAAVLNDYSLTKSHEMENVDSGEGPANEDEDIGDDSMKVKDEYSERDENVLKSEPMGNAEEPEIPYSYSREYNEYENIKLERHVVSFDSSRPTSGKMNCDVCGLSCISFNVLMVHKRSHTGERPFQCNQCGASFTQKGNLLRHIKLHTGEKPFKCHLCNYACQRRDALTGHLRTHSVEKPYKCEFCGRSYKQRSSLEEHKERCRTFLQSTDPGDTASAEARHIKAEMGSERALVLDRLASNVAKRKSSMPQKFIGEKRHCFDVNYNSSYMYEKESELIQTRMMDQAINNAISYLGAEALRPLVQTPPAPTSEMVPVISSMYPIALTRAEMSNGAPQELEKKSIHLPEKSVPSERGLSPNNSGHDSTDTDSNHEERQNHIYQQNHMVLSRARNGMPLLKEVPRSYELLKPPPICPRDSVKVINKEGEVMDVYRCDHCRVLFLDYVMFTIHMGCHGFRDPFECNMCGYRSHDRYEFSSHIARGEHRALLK
T6 sequence (Q96SW2 whole entry): as the sequence (Q96SW2 whole entry) above
T6 sequence (Q16531 whole entry partner): as the sequence (Q16531 whole entry partner) above
T1 sequence (P15170 whole entry): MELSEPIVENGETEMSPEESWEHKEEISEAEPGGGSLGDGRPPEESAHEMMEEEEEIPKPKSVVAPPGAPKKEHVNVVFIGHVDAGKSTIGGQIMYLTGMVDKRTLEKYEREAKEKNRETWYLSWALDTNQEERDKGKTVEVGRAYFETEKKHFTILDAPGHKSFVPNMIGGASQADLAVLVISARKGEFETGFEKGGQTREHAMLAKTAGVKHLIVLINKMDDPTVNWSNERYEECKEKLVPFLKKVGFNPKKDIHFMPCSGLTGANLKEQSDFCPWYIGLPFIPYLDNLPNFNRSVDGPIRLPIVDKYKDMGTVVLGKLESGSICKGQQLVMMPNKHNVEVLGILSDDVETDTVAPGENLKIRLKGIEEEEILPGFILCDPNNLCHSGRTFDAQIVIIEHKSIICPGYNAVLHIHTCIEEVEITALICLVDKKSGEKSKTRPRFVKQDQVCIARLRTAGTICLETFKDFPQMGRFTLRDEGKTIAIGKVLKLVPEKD
T1 sequence (Q96SW2 whole entry): as the sequence (Q96SW2 whole entry) above
T1 sequence (Q16531 whole entry partner): as the sequence (Q16531 whole entry partner) above

In the case of `O=C1CCN(N2Cc3cc(CN4CCN(c5c(Cl)cccc5Cl)CC4)ccc3C2=O)C(=O)N1` [GT-06774, 1-(5-((4-(2,6-dichlorophenyl)piperazin-1-yl)methyl)-1-oxoisoindolin-2-yl)dihydropyrimidine-2,4(1H,3H)-dione], the “GSPT1 substrate protein remaining %” value at GSPT1 is given as “A (0% ≤ substrate protein remaining % ≤80%)”. For the same compound, the “WEE1 substrate protein remaining %” value at WEE1 was “B (80%< substrate protein remaining % ≤100%)”. In addition, the “IKZF2 substrate protein remaining %” value at IKZF2 is listed as “A (0% ≤ substrate protein remaining % ≤80%)”. Moreover, the “IKZF1 substrate protein remaining %” value at IKZF1 is listed as “B (80%< substrate protein remaining % ≤100%)”. The “CK1α substrate protein remaining %” value at CK1α was “A (0% ≤ substrate protein remaining % ≤80%)”. At IKZF3, the “IKZF3 substrate protein remaining %” value was “A (0% ≤ substrate protein remaining % ≤80%)”.

Turning to `O=C1CCN(N2C(=O)c3ccc(CN4CC=C(c5cccc6c(F)cccc56)CC4)cc3C2=O)C(=O)N1` [GT-07687, 2-(2,4-dioxotetrahydropyrimidin-1(2H)-yl)-5-((4-(5-fluoronaphthalen-1-yl)-3,6-dihydropyridin-1(2H)-yl)methyl)isoindoline-1,3-dione], the “GSPT1 substrate protein remaining %” value at GSPT1 is given as “A (0% ≤ substrate protein remaining % ≤80%)”. In addition, the “WEE1 substrate protein remaining %” value on WEE1 was “B (80%< substrate protein remaining % ≤100%)”. The “IKZF2 substrate protein remaining %” value on IKZF2 is given as “B (80%< substrate protein remaining % ≤100%)”. Further, on IKZF1, the “IKZF1 substrate protein remaining %” value is “B (80%< substrate protein remaining % ≤100%)”. The “CK1α substrate protein remaining %” value on CK1α is “B (80%< substrate protein remaining % ≤100%)”. Further, the “IKZF3 substrate protein remaining %” value on IKZF3 is recorded as “B (80%< substrate protein remaining % ≤100%)”.

As for `O=C1CCN(N2Cc3cc(CN4CCN(c5ncnc6sc(Br)cc56)CC4)ccc3C2=O)C(=O)N1` [GT-08063, 1-(5-((4-(6-bromothieno[2,3-d]pyrimidin-4-yl)piperazin-1-yl)methyl)-1-oxoisoindolin-2-yl)dihydropyrimidine-2,4(1H,3H)-dione], on GSPT1, the “GSPT1 substrate protein remaining %” value was “B (80%< substrate protein remaining % ≤100%)”. The “WEE1 substrate protein remaining %” value at WEE1 is “B (80%< substrate protein remaining % ≤100%)”. Also, the “IKZF2 substrate protein remaining %” value on IKZF2 was “A (0% ≤ substrate protein remaining % ≤80%)”. The “IKZF1 substrate protein remaining %” value at IKZF1 is “B (80%< substrate protein remaining % ≤100%)”. Further, on CK1α, the “CK1α substrate protein remaining %” value is reported as “B (80%< substrate protein remaining % ≤100%)”. At IKZF3, the “IKZF3 substrate protein remaining %” value is reported as “A (0% ≤ substrate protein remaining % ≤80%)”.

As for `O=C1CCN(N2Cc3cc(CN4C[C@H]5C[C@@H]4CN5c4cccc(Cl)c4Cl)ccc3C2=O)C(=O)N1` [GT-07427, 1-(5-(((1R,4R)-5-(2,3-dichlorophenyl)-2,5-diazabicyclo[2.2.1]heptan-2-yl)methyl)-1-oxoisoindolin-2-yl)dihydropyrimidine-2,4(1H,3H)-dione], the “GSPT1 substrate protein remaining %” value on GSPT1 was “A (0% ≤ substrate protein remaining % ≤80%)”. The “WEE1 substrate protein remaining %” value at WEE1 is recorded as “A (0% ≤ substrate protein remaining % ≤80%)”. The “IKZF2 substrate protein remaining %” value on IKZF2 is recorded as “B (80%< substrate protein remaining % ≤100%)”. The “IKZF1 substrate protein remaining %” value on IKZF1 was “A (0% ≤ substrate protein remaining % ≤80%)”. In addition, the “CK1α substrate protein remaining %” value on CK1α is “A (0% ≤ substrate protein remaining % ≤80%)”. The “IKZF3 substrate protein remaining %” value at IKZF3 is “B (80%< substrate protein remaining % ≤100%)”.

As for `O=C1CCN(N2C(=O)c3ccc(CN4CCC(c5cccc(Cl)c5Cl)CC4)cc3C2=O)C(=O)N1` [GT-05250, 5-((4-(2,3-dichlorophenyl)piperidin-1-yl)methyl)-2-(2,4-dioxotetrahydropyrimidin-1(2H)-yl)isoindoline-1,3-dione], on GSPT1, the “GSPT1 substrate protein remaining %” value is “B (80%< substrate protein remaining % ≤100%)”. Besides, the “WEE1 substrate protein remaining %” value at WEE1 is given as “B (80%< substrate protein remaining % ≤100%)”. The “IKZF2 substrate protein remaining %” value at IKZF2 is reported as “A (0% ≤ substrate protein remaining % ≤80%)”. Further, the “IKZF1 substrate protein remaining %” value on IKZF1 was “B (80%< substrate protein remaining % ≤100%)”. In addition, the “CK1α substrate protein remaining %” value at CK1α was “B (80%< substrate protein remaining % ≤100%)”. Also, at IKZF3, the “IKZF3 substrate protein remaining %” value is recorded as “B (80%< substrate protein remaining % ≤100%)”.

With `O=C1CCN(N2Cc3cc(CN4CCC(N5CCOc6cc(F)ccc65)CC4)ccc3C2=O)C(=O)N1` [GT-07585, 1-(5-((4-(7-fluoro-2,3-dihydro-4H-benzo[b][1,4]oxazin-4-yl)piperidin-1-yl)methyl)-1-oxoisoindolin-2-yl)dihydropyrimidine-2,4(1H,3H)-dione], the “GSPT1 substrate protein remaining %” value at GSPT1 was “A (0% ≤ substrate protein remaining % ≤80%)”. Also, the “WEE1 substrate protein remaining %” value at WEE1 was “A (0% ≤ substrate protein remaining % ≤80%)”. The “IKZF2 substrate protein remaining %” value on IKZF2 is reported as “B (80%< substrate protein remaining % ≤100%)”. Further, the “IKZF1 substrate protein remaining %” value on IKZF1 was “A (0% ≤ substrate protein remaining % ≤80%)”. Also, on CK1α, the “CK1α substrate protein remaining %” value is on record as “B (80%< substrate protein remaining % ≤100%)”. In addition, the “IKZF3 substrate protein remaining %” value at IKZF3 was “B (80%< substrate protein remaining % ≤100%)”.

`O=C1CCN(N2Cc3cc(CN4CCN(c5cccc(F)n5)CC4)ccc3C2=O)C(=O)N1` [GT-05130, 1-(5-((4-(6-fluoropyridin-2-yl)piperazin-1-yl)methyl)-1-oxoisoindolin-2-yl)dihydropyrimidine-2,4(1H,3H)-dione]: the “GSPT1 substrate protein remaining %” value on GSPT1 is recorded as “A (0% ≤ substrate protein remaining % ≤80%)”. Also, on WEE1, the “WEE1 substrate protein remaining %” value is “A (0% ≤ substrate protein remaining % ≤80%)”. Besides, on IKZF2, the “IKZF2 substrate protein remaining %” value was “A (0% ≤ substrate protein remaining % ≤80%)”. Further, at IKZF1, the “IKZF1 substrate protein remaining %” value is “A (0% ≤ substrate protein remaining % ≤80%)”. For the same compound, on CK1α, the “CK1α substrate protein remaining %” value is “A (0% ≤ substrate protein remaining % ≤80%)”. Also, the “IKZF3 substrate protein remaining %” value on IKZF3 was “A (0% ≤ substrate protein remaining % ≤80%)”.

As for `O=C1CCN(N2C(=O)c3ccc(CN4CCN(c5ccnc(Cl)c5Br)CC4)cc3C2=O)C(=O)N1` [GT-07168, 5-((4-(3-bromo-2-chloropyridin-4-yl)piperazin-1-yl)methyl)-2-(2,4-dioxotetrahydropyrimidin-1(2H)-yl)isoindoline-1,3-dione], on GSPT1, the “GSPT1 substrate protein remaining %” value is “A (0% ≤ substrate protein remaining % ≤80%)”. Moreover, the “WEE1 substrate protein remaining %” value at WEE1 is reported as “B (80%< substrate protein remaining % ≤100%)”. Also, the “IKZF2 substrate protein remaining %” value at IKZF2 is on record as “A (0% ≤ substrate protein remaining % ≤80%)”. Moreover, the “IKZF1 substrate protein remaining %” value on IKZF1 is reported as “B (80%< substrate protein remaining % ≤100%)”. The “CK1α substrate protein remaining %” value at CK1α is “B (80%< substrate protein remaining % ≤100%)”. In addition, the “IKZF3 substrate protein remaining %” value at IKZF3 is reported as “B (80%< substrate protein remaining % ≤100%)”.

As for `Cc1ccsc1C1=CCN(Cc2ccc3c(c2)C(=O)N(N2CCC(=O)NC2=O)C3=O)CC1` [GT-06434, 2-(2,4-dioxotetrahydropyrimidin-1(2H)-yl)-5-((4-(3-methylthiophen-2-yl)-3,6-dihydropyridin-1(2H)-yl)methyl)isoindoline-1,3-dione], at GSPT1, the “GSPT1 substrate protein remaining %” value is given as “A (0% ≤ substrate protein remaining % ≤80%)”. In addition, the “WEE1 substrate protein remaining %” value at WEE1 is listed as “A (0% ≤ substrate protein remaining % ≤80%)”. For the same compound, on IKZF2, the “IKZF2 substrate protein remaining %” value is “A (0% ≤ substrate protein remaining % ≤80%)”. The “IKZF1 substrate protein remaining %” value on IKZF1 is reported as “B (80%< substrate protein remaining % ≤100%)”. For the same compound, the “CK1α substrate protein remaining %” value on CK1α is on record as “B (80%< substrate protein remaining % ≤100%)”. The “IKZF3 substrate protein remaining %” value on IKZF3 is “A (0% ≤ substrate protein remaining % ≤80%)”.

The values above are taken from US20260356819A1, “OXOISOINDOLINYL-SUBSTITUTED […] DERIVATIVE AND USE THEREOF” (GLUETACS THERAPEUTICS (SHANGHAI) CO., LTD., priority 2023, published 2026).
